According to ChEMBL document CHEMBL4507269, “Data for DCP probe BAY-386” (2021):

What was measured:
[1] = target: T1, Adenosine receptor A2b (Homo sapiens) (UniProt P29275); experiment: A2B (h) Eurofins-Cerep Cellular and Nuclear Receptor Functional Assays; conditions: Compound concentration 10.0 uM
T1 sequence (whole entry): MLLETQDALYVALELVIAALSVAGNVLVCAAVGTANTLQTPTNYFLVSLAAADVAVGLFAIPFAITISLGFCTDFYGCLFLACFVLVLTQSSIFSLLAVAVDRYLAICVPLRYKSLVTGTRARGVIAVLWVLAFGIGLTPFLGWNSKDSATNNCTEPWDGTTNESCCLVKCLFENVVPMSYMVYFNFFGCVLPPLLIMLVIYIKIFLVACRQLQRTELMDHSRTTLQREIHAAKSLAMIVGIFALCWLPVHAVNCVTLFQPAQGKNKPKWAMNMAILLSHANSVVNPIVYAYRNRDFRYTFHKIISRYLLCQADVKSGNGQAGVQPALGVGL

[2] = system: ALK tyrosine kinase receptor (Homo sapiens), Q9UM73 [C1156Y]; conditions: Compound concentration 1000.0 nM
[3] = target: Cyclin-dependent kinase-like 3 (Homo sapiens) (UniProt Q8IVW4); conditions: Compound concentration 1000.0 nM
[4] = target: Macrophage colony-stimulating factor 1 receptor (Homo sapiens) (UniProt P07333); conditions: Compound concentration 1000.0 nM
[5] = target: Serine/threonine-protein kinase DCLK1 (Homo sapiens) (UniProt O15075); conditions: Compound concentration 1000.0 nM
[6] = target: Discoidin domain-containing receptor 2 (Homo sapiens) (UniProt Q16832); conditions: Compound concentration 1000.0 nM
[7] = target: Dual specificity tyrosine-phosphorylation-regulated kinase 1B (Homo sapiens) (UniProt Q9Y463); conditions: Compound concentration 1000.0 nM
[8] = target: Dual specificity tyrosine-phosphorylation-regulated kinase 2 (Homo sapiens) (UniProt Q92630); conditions: Compound concentration 1000.0 nM
[9] = system: Epidermal growth factor receptor (Homo sapiens), P00533 [UNDEFINED MUTATION]; conditions: Compound concentration 1000.0 nM
[10] = system: Epidermal growth factor receptor (Homo sapiens), P00533 [L858R]; conditions: Compound concentration 1000.0 nM
[11] = target: Serine/threonine-protein kinase/endoribonuclease IRE1 (Homo sapiens) (UniProt O75460); conditions: Compound concentration 1000.0 nM
[12] = target: Fibroblast growth factor receptor 4 (Homo sapiens) (UniProt P22455); conditions: Compound concentration 1000.0 nM
[13] = target: Cyclin-G-associated kinase (Homo sapiens) (UniProt O14976); conditions: Compound concentration 1000.0 nM
[14] = target: Interleukin-1 receptor-associated kinase 4 (Homo sapiens) (UniProt Q9NWZ3); conditions: Compound concentration 1000.0 nM
[15] = system: Mast/stem cell growth factor receptor Kit (Homo sapiens), P10721 [V559D]; conditions: Compound concentration 1000.0 nM
[16] = target: Serine/threonine-protein kinase LATS2 (Homo sapiens) (UniProt Q9NRM7); conditions: Compound concentration 1000.0 nM
[17] = target: Mitogen-activated protein kinase kinase kinase kinase 5 (Homo sapiens) (UniProt Q9Y4K4); conditions: Compound concentration 1000.0 nM
[18] = target: Dual specificity mitogen-activated protein kinase kinase 1 (Homo sapiens) (UniProt Q02750); conditions: Compound concentration 1000.0 nM
[19] = target: Tyrosine-protein kinase Mer (Homo sapiens) (UniProt Q12866); conditions: Compound concentration 1000.0 nM
[20] = target: Hepatocyte growth factor receptor (Homo sapiens) (UniProt P08581); conditions: Compound concentration 1000.0 nM
[21] = target: Serine/threonine-protein kinase mTOR (Homo sapiens) (UniProt P42345); conditions: Compound concentration 1000.0 nM
[22] = target: Serine/threonine-protein kinase Nek5 (Homo sapiens) (UniProt Q6P3R8); conditions: Compound concentration 1000.0 nM
[23] = target: Platelet-derived growth factor receptor alpha (Homo sapiens) (UniProt P16234); conditions: Compound concentration 1000.0 nM
[24] = target: 3-phosphoinositide-dependent protein kinase 1 (Homo sapiens) (UniProt O15530); conditions: Compound concentration 1000.0 nM
[25] = target: Phosphatidylinositol 4,5-bisphosphate 3-kinase catalytic subunit gamma isoform (Homo sapiens) (UniProt P48736); conditions: Compound concentration 1000.0 nM
[26] = target: Phosphatidylinositol 4-kinase beta (Homo sapiens) (UniProt Q9UBF8); conditions: Compound concentration 1000.0 nM
[27] = target: Serine/threonine-protein kinase N1 (Homo sapiens) (UniProt Q16512); conditions: Compound concentration 1000.0 nM
[28] = target: Serine/threonine-protein kinase D2 (Homo sapiens) (UniProt Q9BZL6); conditions: Compound concentration 1000.0 nM
[29] = target: Interferon-induced, double-stranded RNA-activated protein kinase (Homo sapiens) (UniProt P19525); conditions: Compound concentration 1000.0 nM
[30] = target: Serine/threonine-protein kinase RIO2 (Homo sapiens) (UniProt Q9BVS4); conditions: Compound concentration 1000.0 nM
[31] = target: Receptor-interacting serine/threonine-protein kinase 1 (Homo sapiens) (UniProt Q13546); conditions: Compound concentration 1000.0 nM
[32] = target: Ribosomal protein S6 kinase alpha-6 (Homo sapiens) (UniProt Q9UK32); conditions: Compound concentration 1000.0 nM
[33] = target: Serine/threonine-protein kinase Sgk2 (Homo sapiens) (UniProt Q9HBY8); conditions: Compound concentration 1000.0 nM
[34] = target: Tyrosine-protein kinase SYK (Homo sapiens) (UniProt P43405); conditions: Compound concentration 1000.0 nM
[35] = target: Testis-specific serine/threonine-protein kinase 1 (Homo sapiens) (UniProt Q9BXA7); conditions: Compound concentration 1000.0 nM
[36] = target: 5-hydroxytryptamine receptor 2B (Homo sapiens) (UniProt P41595); conditions: Compound concentration 10.0 uM
[37] = target: 5-hydroxytryptamine receptor 6 (Homo sapiens) (UniProt P50406); conditions: Compound concentration 10.0 uM
[38] = target: Mu-type opioid receptor (Homo sapiens) (UniProt P35372); conditions: Compound concentration 10.0 uM
[39] = target: Kappa-type opioid receptor (Homo sapiens) (UniProt P41145); conditions: Compound concentration 10.0 uM
[40] = target: Muscarinic acetylcholine receptor M5 (Homo sapiens) (UniProt P08912); conditions: Compound concentration 10.0 uM

Phosphatidylinositol 4-kinase beta (Homo sapiens), sequence (Q9UBF8 2-816 limits assumed): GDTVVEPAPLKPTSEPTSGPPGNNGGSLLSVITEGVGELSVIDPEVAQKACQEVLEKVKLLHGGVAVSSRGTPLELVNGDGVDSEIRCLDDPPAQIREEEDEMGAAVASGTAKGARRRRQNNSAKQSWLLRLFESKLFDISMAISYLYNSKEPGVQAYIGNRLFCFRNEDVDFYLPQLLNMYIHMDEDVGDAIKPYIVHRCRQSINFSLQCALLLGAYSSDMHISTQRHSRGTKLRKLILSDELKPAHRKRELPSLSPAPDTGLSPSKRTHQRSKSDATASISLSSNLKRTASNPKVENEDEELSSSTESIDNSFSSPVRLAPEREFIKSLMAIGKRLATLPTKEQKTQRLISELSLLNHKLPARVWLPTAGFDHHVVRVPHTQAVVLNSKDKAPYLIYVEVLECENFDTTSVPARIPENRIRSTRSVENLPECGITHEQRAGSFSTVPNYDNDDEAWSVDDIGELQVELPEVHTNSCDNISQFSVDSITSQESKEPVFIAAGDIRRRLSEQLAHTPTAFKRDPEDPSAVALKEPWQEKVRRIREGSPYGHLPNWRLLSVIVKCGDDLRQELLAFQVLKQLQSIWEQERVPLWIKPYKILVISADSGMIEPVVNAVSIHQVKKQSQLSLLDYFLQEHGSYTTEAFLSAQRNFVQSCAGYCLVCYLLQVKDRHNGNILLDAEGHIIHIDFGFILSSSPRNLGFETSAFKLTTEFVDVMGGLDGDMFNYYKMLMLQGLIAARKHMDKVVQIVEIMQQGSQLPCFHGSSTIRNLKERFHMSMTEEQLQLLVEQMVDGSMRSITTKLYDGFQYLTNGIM
Serine/threonine-protein kinase N1 (Homo sapiens), sequence (Q16512 2-942 limits assumed): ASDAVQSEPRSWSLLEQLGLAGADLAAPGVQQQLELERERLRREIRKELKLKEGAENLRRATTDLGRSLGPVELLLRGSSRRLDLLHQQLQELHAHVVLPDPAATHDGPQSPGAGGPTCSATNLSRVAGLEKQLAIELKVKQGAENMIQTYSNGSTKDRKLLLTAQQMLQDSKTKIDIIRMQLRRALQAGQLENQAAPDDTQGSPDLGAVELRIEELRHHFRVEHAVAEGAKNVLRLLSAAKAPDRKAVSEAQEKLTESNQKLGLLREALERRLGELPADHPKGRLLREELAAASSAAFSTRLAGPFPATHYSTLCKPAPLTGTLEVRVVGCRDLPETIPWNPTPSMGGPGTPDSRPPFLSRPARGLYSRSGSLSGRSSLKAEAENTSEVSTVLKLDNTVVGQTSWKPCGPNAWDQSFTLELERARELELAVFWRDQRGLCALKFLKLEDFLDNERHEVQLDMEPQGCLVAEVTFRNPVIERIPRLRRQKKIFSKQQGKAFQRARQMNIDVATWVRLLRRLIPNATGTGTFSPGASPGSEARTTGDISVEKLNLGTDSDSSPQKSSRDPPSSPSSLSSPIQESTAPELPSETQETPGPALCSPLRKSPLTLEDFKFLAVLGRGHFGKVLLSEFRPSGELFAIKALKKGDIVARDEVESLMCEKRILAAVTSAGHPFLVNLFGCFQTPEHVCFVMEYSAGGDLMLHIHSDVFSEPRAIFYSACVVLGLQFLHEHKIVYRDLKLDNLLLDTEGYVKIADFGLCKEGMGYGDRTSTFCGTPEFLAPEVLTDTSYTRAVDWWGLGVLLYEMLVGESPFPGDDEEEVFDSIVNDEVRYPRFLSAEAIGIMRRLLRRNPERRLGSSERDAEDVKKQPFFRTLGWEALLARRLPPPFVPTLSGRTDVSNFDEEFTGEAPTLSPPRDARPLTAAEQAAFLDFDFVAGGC
Mu-type opioid receptor (Homo sapiens), sequence (P35372 whole entry): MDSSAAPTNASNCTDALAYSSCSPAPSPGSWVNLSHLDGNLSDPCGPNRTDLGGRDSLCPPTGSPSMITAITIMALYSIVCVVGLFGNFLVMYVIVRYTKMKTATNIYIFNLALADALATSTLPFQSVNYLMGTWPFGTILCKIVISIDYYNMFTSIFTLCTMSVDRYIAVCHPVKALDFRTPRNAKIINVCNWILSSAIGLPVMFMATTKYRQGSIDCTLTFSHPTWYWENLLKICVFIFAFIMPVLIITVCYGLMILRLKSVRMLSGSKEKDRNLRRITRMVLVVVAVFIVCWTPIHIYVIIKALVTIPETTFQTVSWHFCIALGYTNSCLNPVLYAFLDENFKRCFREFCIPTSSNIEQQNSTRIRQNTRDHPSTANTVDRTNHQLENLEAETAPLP
5-hydroxytryptamine receptor 6 (Homo sapiens), sequence (P50406 whole entry): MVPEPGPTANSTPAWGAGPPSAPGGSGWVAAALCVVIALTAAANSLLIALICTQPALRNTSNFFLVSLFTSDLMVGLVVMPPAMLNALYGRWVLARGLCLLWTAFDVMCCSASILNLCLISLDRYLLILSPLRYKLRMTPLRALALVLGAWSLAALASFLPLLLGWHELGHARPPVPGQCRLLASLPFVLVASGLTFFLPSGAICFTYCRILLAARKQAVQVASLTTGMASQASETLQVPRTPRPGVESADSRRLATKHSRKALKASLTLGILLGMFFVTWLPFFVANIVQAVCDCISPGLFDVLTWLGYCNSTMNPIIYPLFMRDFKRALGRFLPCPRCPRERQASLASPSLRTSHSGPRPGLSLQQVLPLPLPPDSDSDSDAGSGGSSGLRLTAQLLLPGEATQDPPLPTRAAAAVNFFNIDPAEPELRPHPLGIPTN
Receptor-interacting serine/threonine-protein kinase 1 (Homo sapiens), sequence (Q13546 whole entry): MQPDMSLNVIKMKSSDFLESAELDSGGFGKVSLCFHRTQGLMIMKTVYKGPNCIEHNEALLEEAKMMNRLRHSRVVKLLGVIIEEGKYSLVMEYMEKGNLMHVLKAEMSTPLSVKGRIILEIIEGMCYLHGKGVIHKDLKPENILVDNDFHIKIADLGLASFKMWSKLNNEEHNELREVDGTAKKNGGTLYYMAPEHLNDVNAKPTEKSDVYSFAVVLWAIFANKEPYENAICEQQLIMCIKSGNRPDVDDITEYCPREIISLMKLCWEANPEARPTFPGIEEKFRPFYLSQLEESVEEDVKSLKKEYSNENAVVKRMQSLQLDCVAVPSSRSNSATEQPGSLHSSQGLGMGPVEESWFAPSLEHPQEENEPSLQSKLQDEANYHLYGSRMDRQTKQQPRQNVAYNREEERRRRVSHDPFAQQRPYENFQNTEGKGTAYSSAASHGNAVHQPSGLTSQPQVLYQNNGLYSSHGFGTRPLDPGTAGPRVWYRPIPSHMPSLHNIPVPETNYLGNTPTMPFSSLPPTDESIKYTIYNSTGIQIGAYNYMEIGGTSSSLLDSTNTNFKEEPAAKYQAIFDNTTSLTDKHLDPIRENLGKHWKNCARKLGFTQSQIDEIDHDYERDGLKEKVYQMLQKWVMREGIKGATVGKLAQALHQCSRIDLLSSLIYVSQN
Serine/threonine-protein kinase D2 (Homo sapiens), sequence (Q9BZL6 whole entry): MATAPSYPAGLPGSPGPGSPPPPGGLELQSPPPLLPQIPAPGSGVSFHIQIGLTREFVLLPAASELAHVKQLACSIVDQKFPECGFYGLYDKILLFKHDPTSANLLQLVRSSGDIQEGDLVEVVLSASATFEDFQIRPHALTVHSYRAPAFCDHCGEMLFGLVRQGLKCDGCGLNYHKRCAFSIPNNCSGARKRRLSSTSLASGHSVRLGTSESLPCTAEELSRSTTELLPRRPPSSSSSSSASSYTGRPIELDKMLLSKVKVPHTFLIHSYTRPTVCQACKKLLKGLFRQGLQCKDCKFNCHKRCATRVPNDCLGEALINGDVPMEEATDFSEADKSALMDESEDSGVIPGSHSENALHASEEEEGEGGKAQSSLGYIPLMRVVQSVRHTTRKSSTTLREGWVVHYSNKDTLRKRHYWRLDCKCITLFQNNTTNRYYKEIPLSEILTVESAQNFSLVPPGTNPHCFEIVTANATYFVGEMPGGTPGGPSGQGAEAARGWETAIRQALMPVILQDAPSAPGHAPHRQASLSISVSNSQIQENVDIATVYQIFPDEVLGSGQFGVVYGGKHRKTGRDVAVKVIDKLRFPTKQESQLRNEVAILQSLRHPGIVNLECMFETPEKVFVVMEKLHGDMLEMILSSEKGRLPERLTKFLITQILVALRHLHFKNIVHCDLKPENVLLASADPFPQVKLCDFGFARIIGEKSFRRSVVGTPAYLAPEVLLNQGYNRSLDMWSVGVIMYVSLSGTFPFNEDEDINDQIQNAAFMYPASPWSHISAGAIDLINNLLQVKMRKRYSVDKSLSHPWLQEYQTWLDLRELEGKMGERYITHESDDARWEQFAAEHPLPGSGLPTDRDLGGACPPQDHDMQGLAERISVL
Testis-specific serine/threonine-protein kinase 1 (Homo sapiens), sequence (Q9BXA7 whole entry): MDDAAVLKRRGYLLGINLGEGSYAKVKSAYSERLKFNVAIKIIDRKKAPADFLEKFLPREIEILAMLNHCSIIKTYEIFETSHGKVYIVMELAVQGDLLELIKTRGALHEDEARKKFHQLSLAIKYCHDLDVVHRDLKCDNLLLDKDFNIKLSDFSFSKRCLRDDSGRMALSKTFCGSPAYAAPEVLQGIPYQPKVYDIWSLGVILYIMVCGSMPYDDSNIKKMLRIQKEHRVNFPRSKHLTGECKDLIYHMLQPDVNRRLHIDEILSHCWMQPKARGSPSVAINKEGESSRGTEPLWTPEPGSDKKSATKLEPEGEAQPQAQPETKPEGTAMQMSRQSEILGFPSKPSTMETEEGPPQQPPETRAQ
Kappa-type opioid receptor (Homo sapiens), sequence (P41145 whole entry): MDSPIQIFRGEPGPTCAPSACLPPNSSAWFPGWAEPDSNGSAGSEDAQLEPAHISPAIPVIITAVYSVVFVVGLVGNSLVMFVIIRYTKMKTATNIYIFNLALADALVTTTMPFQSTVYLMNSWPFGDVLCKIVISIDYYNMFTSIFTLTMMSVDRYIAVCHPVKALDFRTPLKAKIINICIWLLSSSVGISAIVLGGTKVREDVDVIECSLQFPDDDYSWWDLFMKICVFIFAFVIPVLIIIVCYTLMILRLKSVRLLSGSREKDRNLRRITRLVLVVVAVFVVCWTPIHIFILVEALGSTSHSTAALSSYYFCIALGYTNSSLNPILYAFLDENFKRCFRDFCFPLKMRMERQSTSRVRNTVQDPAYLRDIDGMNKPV

O=C(N1CCS(=O)(=O)CC1)N1C[C@H](c2ccc(OC(F)(F)F)cc2)C[C@H](c2nc(C3CC3)no2)C1 [BAY-386]
-0.3%: % Inhibition of Control Agonist Response (Mean n=2) [1]
inactive: residual activity [2] 79% | residual activity [3] 93% | residual activity [4] 100% | residual activity [5] 100% | residual activity [6] 100% | residual activity [7] 93% | residual activity [8] 100% | residual activity [9] 100% | residual activity [10] 100% | residual activity [11] 96% | residual activity [12] 100% | residual activity [13] 100% | residual activity [14] 80% | residual activity [15] 100% | residual activity [16] 100% | residual activity [17] 100% | residual activity [18] 91% | residual activity [19] 100% | residual activity [20] 100% | residual activity [21] 100% | residual activity [22] 98% | residual activity [23] 100% | residual activity [24] 94% | residual activity [25] 100% | residual activity [26] 100% | residual activity [27] 100% | residual activity [28] 100% | residual activity [29] 100% | residual activity [30] 100% | residual activity [31] 100% | residual activity [32] 76% | residual activity [33] 76% | residual activity [34] 100% | residual activity [35] 95% | inhibition [36] 17.1% | inhibition [37] 2.78% | inhibition [38] -4.38% | inhibition [39] 1.29% | inhibition [40] 4.1%
3.5%: % of Control Agonist Response (Mean n=2) [1]

Cc1noc([C@H]2C[C@@H](c3ccc(C(F)(F)F)cc3)CN(C(=O)N3CCS(=O)(=O)C3)C2)n1 [BAY-448]
inactive: residual activity [2] 100% | residual activity [3] 81% | residual activity [4] 100% | residual activity [5] 75% | residual activity [6] 74% | residual activity [7] 76% | residual activity [8] 100% | residual activity [9] 100% | residual activity [10] 100% | residual activity [11] 100% | residual activity [12] 100% | residual activity [13] 97% | residual activity [14] 83% | residual activity [15] 100% | residual activity [16] 100% | residual activity [17] 100% | residual activity [18] 100% | residual activity [19] 100% | residual activity [20] 100% | residual activity [21] 92% | residual activity [22] 100% | residual activity [23] 100% | residual activity [24] 95% | residual activity [25] 85% | residual activity [26] 93% | residual activity [27] 100% | residual activity [28] 100% | residual activity [29] 100% | residual activity [30] 100% | residual activity [31] 100% | residual activity [32] 98% | residual activity [33] 100% | residual activity [34] 96% | residual activity [35] 100% | inhibition [36] 16.8% | inhibition [37] 27.7% | inhibition [38] 2.23% | inhibition [39] 7.69% | inhibition [40] -1.71%
1.5%: % of Control Agonist Response (Mean n=2) [1]
-8.5%: % Inhibition of Control Agonist Response (Mean n=2) [1]
